Among the data in US20070099983A1, “Aminocyclohexyl ether compounds and uses thereof” (Cardiome Pharma Corp., priority 2003, published 2007) are cum conv dose and convulsion dose values, retold here.

This data set has as its system conscious rats. As to the kind of experiment: Determination of CNS toxicity: convulsions in conscious rats on increasing i.v. infusion. In kind it is in vivo.
The mark [1] stands for this setting: minimum i.v. infusion rate at which partial or complete convulsions are observed, conscious rats, maximum rate 64.
Setting [2] is: total amount of drug infused when partial or complete convulsions are first observed, conscious rats.

Under “rat, in vivo”, `COc1ccc(CCO[C@H]2CCCCC2N2CC[C@@H](OCc3ccccc3)C2)cc1OC.Cl` (stereo partly drawn) [Compound 12, (3R)-3-benzyloxy-1-{(1R,2R)/(1S,2S)-2-[2-(3,4-dimethoxyphenyl)-ethoxy]cyclohexyl}-pyrrolidine hydrochloride] gave a cum conv dose of 51.1 µmol/kg. Moreover, the convulsion dose (rat, in vivo, iv) worked out at 8 µmol/kg/min.

Consider `Cl.OC1CCN(C2CCCC[C@@H]2OCCc2cccc3ccccc23)C1` (stereo partly drawn) [Compound 26, (3R)/(3S)-1-{(1R,2R)/(1S,2S)-2-[2-(1-naphthyl)ethoxy]-cyclohexyl}-pyrrolidin-3-ol hydrochloride], for which the cum conv dose (rat, in vivo) stood at 67.33 µmol/kg. For the same compound, the convulsion dose (rat, in vivo, iv) was determined as 8 µmol/kg/min.

`Cl.OC1CCN(C2CCCC[C@@H]2OCCc2c(Cl)cccc2Cl)C1` (stereo partly drawn) [Compound 23, (3R)/(3S)-1-{(1R,2R)/(1S,2S)-2-[2-(2,6-dichlorophenyl)-ethoxy]cyclohexyl}-pyrrolidin-3-ol hydrochloride] registered a cum conv dose (rat, in vivo) of 65 µmol/kg. The same compound gave a convulsion dose (rat, in vivo, iv) of 8 µmol/kg/min.

The compound `Cl.O[C@@H]1CCN(C2CCCC[C@@H]2OCCc2cc3ccccc3o2)C1` (stereo partly drawn) [Compound 29, (3R)-1-{(1R,2R)/(1S,2S)-2-[2-(1-benzofuran-2-yl)ethoxy]-cyclohexyl}-pyrrolidin-3-ol hydrochloride] had a cum conv dose (rat, in vivo) of 65.67 µmol/kg. Also, the convulsion dose (rat, in vivo, iv) is 10.67 µmol/kg/min.

`Cl.O=C1CCN(C2CCCC[C@@H]2OCC(c2ccccc2)c2ccccc2)C1` (stereo partly drawn) [Compound 47, (1R,2R)/(1S,2S)-2-(3-ketopyrrolidinyl)-1-(2,2-diphenylethoxy)cyclo hexane monohydrochloride] showed a cum conv dose (rat, in vivo) of 155 µmol/kg. Under “rat, in vivo, iv”, this compound came in with a convulsion dose of 21 µmol/kg/min.

The compound `COc1ccc(CCO[C@@H]2CCCC[C@H]2N2CC[C@@H](OC(C)=O)C2)cc1OC.Cl` [Compound 17, (3R)-1-{(1R,2R)-2-[2-(3,4-dimethoxyphenyl)-ethoxy]cyclohexyl}-pyrrolidin-3-yl acetate hydrochloride] gave a cum conv dose (rat, in vivo) of 74.3 µmol/kg. Besides, the convulsion dose (rat, in vivo, iv) was 13.33 µmol/kg/min.

For `c1ccc2cc(OCCO[C@H]3CCCCC3N3CCOCC3)ccc2c1` (stereo partly drawn) [Compound 33, (1R,2R)/(1S,2S)-[2-(4-morpholinyl)-1-[2-(2-naphthoxy)ethoxy]]-cyclohexane], the cum conv dose (rat, in vivo) came to 61.63 µmol/kg. Where the note is “rat, in vivo, iv”, this compound registered a convulsion dose of 8 µmol/kg/min.

`COc1ccc(CCO[C@H]2CCCC[C@@H]2N2CC[C@H](O)C2)cc1OC.Cl` [Compound 7, (1S,2S)-2-[(3S)-Hydroxypyrrolidinyl]-1-(3,4-dimethoxyphenethoxy)cyclohexane monohydrochloride] had a cum conv dose (rat, in vivo) of 451.67 µmol/kg. The compound also yielded a convulsion dose (rat, in vivo, iv) of 64 µmol/kg/min.

For the compound `COc1ccc(CCOC2CCCC[C@H]2N2CCN(C(=O)Cc3ccc(OC)c(OC)c3)CC2)cc1OC.Cl` (stereo partly drawn) [Compound 22, 1-[(3,4-dimethoxyphenyl)acetyl]-4-{(1R,2R)/(1S,2S)-2-[2-(3,4-dimethoxyphenyl)-ethoxy]cyclohexyl}-piperazine hydrochloride], the convulsion dose under setting [1] was 21.33 µmol/kg/min. This compound also registered a cum conv dose under setting [2] of 133 µmol/kg.

For the setting “rat, in vivo”, `COc1ccc(CCO[C@H]2CCCCC2N2CC[C@H](O)C2)cc1OC.Cl` (stereo partly drawn) [Compound 5, (1R,2R)/(1S,2S)-2-[(3S)-Hydroxypyrrolidinyl]-1-(3,4-dimethoxyphenethoxy)-cyclohexane monohydrochloride] had a cum conv dose of 438 µmol/kg. The compound also returned a convulsion dose (rat, in vivo, iv) of 64 µmol/kg/min.

As to `Cl.OC1CCN(C2CCCC[C@@H]2OCCc2ccccc2Br)C1` (stereo partly drawn) [Compound 24, (3R)/(3S)-1-{(1R,2R)/(1S,2S)-2-[2-(2-bromophenyl)-ethoxy]cyclohexyl}-pyrrolidin-3-ol hydrochloride], the cum conv dose (rat, in vivo) came to 67 µmol/kg. For the same compound, for the setting “rat, in vivo, iv”, the convulsion dose is 13 µmol/kg/min.

Under “rat, in vivo”, `Cl.OC1CCN(C2CCCC[C@@H]2OCCn2ccc3ccccc32)C1` (stereo partly drawn) [Compound 28, (3R)/(3S)-1-{(1R,2R)/(1S,2S)-2-[2-(1H-indol-1-yl)ethoxy]cyclohexyl}pyrrolidin-3-ol hydrochloride] displayed a cum conv dose of 113 µmol/kg. For the same compound, the convulsion dose (rat, in vivo, iv) was 16 µmol/kg/min.

In turn, `COc1ccc(CCO[C@H]2CCCCC2N2CCOCC2)cc1OC` (stereo partly drawn) [Compound 35, (1R,2R)/(1S,2S)-[2-(4-morpholinyl)-1-(3,4-dimethoxy-phenethoxy)]-cyclohexane] registered a cum conv dose (rat, in vivo) of 113 µmol/kg. Further, the convulsion dose (rat, in vivo, iv) came out at 16 µmol/kg/min.

In the case of `c1ccc2c(CCO[C@H]3CCCCC3N3CCOCC3)csc2c1` (stereo partly drawn) [Compound 36], the cum conv dose (rat, in vivo) is 65 µmol/kg. This compound also had a convulsion dose (rat, in vivo, iv) of 8 µmol/kg/min.

For the setting “rat, in vivo”, `Clc1ccc(CCO[C@H]2CCCCC2N2CCOCC2)cc1Cl` (stereo partly drawn) [Compound 40, (1R,2R)/(1S,2S)-2-(4-morpholinyl)-1-(3,4-dichlorophenethoxy) cyclohexane] gave a cum conv dose of 118 µmol/kg. In addition, the convulsion dose (rat, in vivo, iv) worked out at 16 µmol/kg/min.

On to `COc1ccc(CCO[C@H]2CCCCC2N2CC[C@H](OCc3ccccc3)C2)cc1OC.Cl` (stereo partly drawn) [Compound 11, (3S)-3-benzyloxy-1-{(1R,2R)/(1S,2S)-2-[2-(3,4-dimethoxyphenyl)-ethoxy]cyclohexyl}-pyrrolidine hydrochloride], for which the cum conv dose (rat, in vivo) was 38.13 µmol/kg. Where the note is “rat, in vivo, iv”, this compound registered a convulsion dose of 8 µmol/kg/min.

Where the note is “rat, in vivo”, `Cl.O=C1CCN(C2CCCC[C@@H]2OCCc2c(Cl)cccc2Cl)C1` (stereo partly drawn) [Compound 41, (1R,2R)/(1S,2S)-2-(3-ketopyrrolidinyl)-1-(2,6-dichlorophenethoxy) cyclohexane monohydrochloride] yielded a cum conv dose of 190 µmol/kg. For the setting “rat, in vivo, iv”, this compound registered a convulsion dose of 32 µmol/kg/min.

Take `COc1ccc(CCO[C@H]2CCCC[C@@H]2N2CC[C@@H](O)C2)cc1OC.Cl` [Compound 2, (1S,2S)-2-[(3R)-Hydroxypyrrolidinyl]-1-(3,4-dimethoxyphenethoxy)cyclohexane monohydrochloride]: the cum conv dose (rat, in vivo) stood at 500.67 µmol/kg. This compound yielded a convulsion dose (rat, in vivo, iv) of 64 µmol/kg/min.

`COc1ccc(CCOC2CCCC[C@H]2N2CCC(F)C2)cc1OC.Cl` (stereo partly drawn) [Compound 14, (3R)/(3S)-1-{(1R,2R)/(1S,2S)-2-[2-(3,4-dimethoxyphenyl)-ethoxy]cyclohexyl}-3-fluoropyrrolidine hydrochloride] showed a cum conv dose (rat, in vivo) of 63.33 µmol/kg. Further, the convulsion dose (rat, in vivo, iv) came to 10.67 µmol/kg/min.

`COc1ccc(CCO[C@H]2CCCCC2N2CCCC2)cc1OC.Cl` (stereo partly drawn) [Compound 10, 1-{(1R,2R)/(1S,2S)-2-[2-(3,4-dimethoxyphenyl)-ethoxy]cyclohexyl}-pyrrolidine hydrochloride]: the cum conv dose (rat, in vivo) was 118 µmol/kg. The same compound had a convulsion dose (rat, in vivo, iv) of 21.33 µmol/kg/min.

The compound `COc1ccc(CCOC2CCCC[C@H]2N2CCOCC2)cc1OC.Cl` (stereo partly drawn) [Compound 8, 4-{(1R,2R)/(1S,2S)-2-[2-(3,4-dimethoxy-phenyl)ethoxy]cyclohexyl}morpholine hydrochloride] returned a cum conv dose (rat, in vivo) of 113 µmol/kg. Under “rat, in vivo, iv”, the convulsion dose was determined as 16 µmol/kg/min.

The compound `Cl.OC1CCN([C@@H]2CCCC[C@@H]2OCCc2cccc3ccccc23)C1` (stereo partly drawn) [Compound 25, (3R)/(3S)-1-{(1R,2S)/(1S,2R)-2-[2-(1-naphthyl)ethoxy]-cyclohexyl}-pyrrolidin-3-ol hydrochloride] yielded a cum conv dose (rat, in vivo) of 70 µmol/kg. The convulsion dose (rat, in vivo, iv) worked out at 16 µmol/kg/min.

For the compound `COc1ccc(CCO[C@H]2CCCCC2N2CCC3(C2)OCCO3)cc1OC.Cl` (stereo partly drawn) [Compound 9, 7-{(1R,2R)/(1S,2S)-2-[2-(3,4-dimethoxyphenyl)-ethoxy]cyclohexyl}-1,4-dioxa-7-azaspiro[4.4]nonane hydrochloride], the convulsion dose under setting [1] is 16 µmol/kg/min. Besides, the cum conv dose under setting [2] is 91.33 µmol/kg.

`COc1ccc(CCCO[C@H]2CCCCC2N2CCOCC2)cc1OC.Cl` (stereo partly drawn) [Compound 19, 4-{(1R,2R)/(1S,2S)-2-[3-(3,4-dimethoxyphenyl)-propoxy]cyclohexyl}morpholine hydrochloride]: the cum conv dose (rat, in vivo) was determined as 109 µmol/kg. Under “rat, in vivo, iv”, the convulsion dose came out at 16 µmol/kg/min.
